Source: paper PMC11778240, “Synthesis and preclinical evaluation of tigilanol tiglate analogs as latency-reversing agents for the eradication of HIV” (Science Advances, 2025)
Where “and” joins values, the source holds several entries; their conditions need not be identical. Equal entries are not always repeated. Where two headings read alike, the source gives them in different places.

Key:
PKC-δ = target: T1, PKC-δ (Homo sapiens, UniProt Q05655); test: Cell-free PKC competition binding assay against 3H-PDBu
T1 construct: purchased Invitrogen (Sinobiological for the SUW402 experiment)
T1 sequence (Q05655 whole entry): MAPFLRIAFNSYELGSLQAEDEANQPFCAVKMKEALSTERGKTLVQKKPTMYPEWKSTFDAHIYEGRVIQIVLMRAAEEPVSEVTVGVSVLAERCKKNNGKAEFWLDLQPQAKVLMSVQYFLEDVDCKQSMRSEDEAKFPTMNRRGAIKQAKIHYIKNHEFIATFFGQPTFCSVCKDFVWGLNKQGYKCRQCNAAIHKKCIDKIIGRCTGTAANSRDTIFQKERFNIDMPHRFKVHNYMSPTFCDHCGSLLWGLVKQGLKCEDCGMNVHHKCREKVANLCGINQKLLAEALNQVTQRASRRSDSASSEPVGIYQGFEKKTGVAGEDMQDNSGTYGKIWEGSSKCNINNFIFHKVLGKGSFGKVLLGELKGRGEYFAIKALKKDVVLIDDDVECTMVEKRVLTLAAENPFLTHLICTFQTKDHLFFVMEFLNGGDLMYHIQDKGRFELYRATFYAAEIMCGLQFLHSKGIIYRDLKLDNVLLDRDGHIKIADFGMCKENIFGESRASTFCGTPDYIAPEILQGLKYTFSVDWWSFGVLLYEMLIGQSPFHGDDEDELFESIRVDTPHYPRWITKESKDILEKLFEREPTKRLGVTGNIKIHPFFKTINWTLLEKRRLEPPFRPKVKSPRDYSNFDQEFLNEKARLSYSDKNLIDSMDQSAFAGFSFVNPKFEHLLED
Excerpt: (§1) With a diverse library of compounds bearing unique functionalities on the A-, B-, and C-rings (Fig. 6), we began to explore how these modifications affect PKC binding (Fig. 7A), NF-κB activation (Fig. 7B), cell permeation and PKC translocation (Fig. 7, C and D), and latency reversal in J-Lat cells (Fig. 8). […] We conducted this assay with phosphatidyl serine vesicles in solution that mimic the cellular membrane and play a critical role in the binding of small molecules to the PKC C1 domain (Fig. 7A) ([64]).
(§2) Cell-free PKC Binding Assay
The protein kinase C (PKC) affinity of EBC-46 and EBC-46 analogs was determined via competition with 3H-phorbol-12,13-dibutyrate (3H-PDBu) as described below. This procedure entails a glass-fiber filtration method to determine bound radioligand. The method of determining the radioligand Kd is also described.
(§3) Tris HCl (Fisher, ≥ 99%, stored at room temperature)
(§4) Phosphatidylserine (Avanti Polar Lipids, porcine, 25 mg/mL CHCl3 solution, stored at - […]
(§5) Bovine serum albumin (Sigma -Aldrich, ≥ 98%, globulin free, protease free, stored at 4 […]
Human PKC-β-I-GST fusion protein (Invitrogen, aliquoted and stored at -78 °C) Human PKC-δ-GST fusion protein (Invitrogen, aliquoted and stored at -78 °C) Glass-fiber filters (Whatman GF/B)
Preparation of 3H -PDBu solution : […]
(§6) a final concentration of 500 nM.
(§7) Preparation of phosphatidylserine (PS) vesicles :
(§8) For every 96 samples, 3.5 mg phosphatidylserine (140 μL) (25 mg/mL CHCl3 solution) was concentrated by removing chloroform under reduced pressure. The phosphatidylserine residue was resuspended in freshly prepared PKC binding assay buffer (3.5 mL), capped, and then thoroughly mixed by alternating between sonicating and vortexing, in 10 second intervals for 1 minute or until a cloudy white mixture (Branson Sonifier 250, power = 2, 50% duty cycle). The resulting cloudy white mixture (1 mg/mL) was stored on ic e until use.
(§9) Preparation of the "master mix" Solution :
(§10) Constituent Stock concentration (final concentration/amount in “master mix”):
(§11) PS vesicles (0.103 mg/mL)
(§12) Deionized H2O - Final vol of 30 mL
(§13) Preparation of PKC binding assay buffer:
(§14) For every 96 samples, to a 50 mL polypropylene tube was added Tris -HCl (pH 7.4, 1 M, 1.5 mL), KCl (1 M, 3 mL), CaCl2 (0.1 M, 35 μL – conventional isoforms only), and bovine serum albumin (60 mg). This mixture was diluted to 30 mL with deionized H2O and mixed gently. The buffer was […]
(§15) Preparation of PKC isoform solution:
(§16) For every 96 samples, PKC isoform solution was prepared by dissolving a 4 μg aliquot of the indicated recombinant human PKC isoform into 26.5 mL of PKC binding assay buffer. The diluted PKC was stored on ice for immediate use.
(§17) Preparation of PKC “master mix” solution:
(§18) To the PKC-isoform solution was added 1 mg/mL PS vesicles solution (3.30 mL), and 500 nM […]
(§19) The resulting “master mix” solution was vortexed and stored on […]
(§20) Preparation of analog compound dilutions:
(§21) Compound dilutions were prepared with filtered DMSO by serially diluting from a chosen "high" concentration. For the saturation binding experiment (radioligand Kd determination), the maximum radioligand concentration used was 4.0 nM with 2-fold dilutions between data points […]
isoforms ranges from 0.3 – 0.8 nM. […]
(§22) the middle of the binding curve.
(§23) For the competition binding experiment (analog Ki determination), 7 or 14 concentrations were used to define the inhibition curve, and compounds dilutions changed by factors of 2 or √2 between data points. The concentrations were chosen such that the in-assay concentration for the data points in the middle of the binding curve were approximately equal to the IC50 of the compound (if the IC50 is unknown, an exploratory binding assay is recommended prior to Ki determination). For assays with one compound per sheet, the √2-fold dilutions were prepared for the concentrations in the middle of the curve (e.g., for SUW400, the analog dilutions used were 15000 nM, 7500 nM, […]
PKC binding assay protocol (Saturation -binding experiment and Competition -binding experiment) […]

PKC-β-I = target: T2, PKC-β-I (Homo sapiens, UniProt P05771); test: as above; conditions: for PKC-β selectivity: Fig. 7A, PKC-β over PKC-δ; for logKi (best-fit value), PKC-β-I: log of Ki in nM; for PKC binding affinity and selectivity in words / decrease in PKC binding affinity / potency compared to EBC-46: PKC-β and PKC-δ
T2 construct: purchased Invitrogen
T2 sequence (P05771 whole entry): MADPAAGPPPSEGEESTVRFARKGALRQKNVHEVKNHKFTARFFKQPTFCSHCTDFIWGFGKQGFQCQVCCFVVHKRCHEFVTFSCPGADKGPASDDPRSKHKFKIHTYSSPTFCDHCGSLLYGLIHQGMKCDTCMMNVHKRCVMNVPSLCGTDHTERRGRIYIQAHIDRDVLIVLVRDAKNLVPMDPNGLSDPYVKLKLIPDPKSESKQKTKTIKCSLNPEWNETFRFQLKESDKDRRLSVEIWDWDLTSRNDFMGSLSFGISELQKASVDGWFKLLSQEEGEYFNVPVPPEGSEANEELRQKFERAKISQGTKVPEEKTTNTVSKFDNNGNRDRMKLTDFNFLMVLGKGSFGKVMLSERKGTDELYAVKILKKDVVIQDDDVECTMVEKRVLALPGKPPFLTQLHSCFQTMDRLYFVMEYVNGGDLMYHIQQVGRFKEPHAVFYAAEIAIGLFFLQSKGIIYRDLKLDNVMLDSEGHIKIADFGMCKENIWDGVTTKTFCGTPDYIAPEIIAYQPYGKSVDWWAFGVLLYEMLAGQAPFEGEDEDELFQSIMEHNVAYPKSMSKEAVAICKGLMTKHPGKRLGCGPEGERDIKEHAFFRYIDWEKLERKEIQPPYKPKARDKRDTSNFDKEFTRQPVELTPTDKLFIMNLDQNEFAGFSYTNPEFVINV
Excerpt: as §1, §2
The protein kinase C (PKC) affinity of EBC-46 and EBC-46 analogs was determined via […]
entails a glass-fiber filtration method to determine bound radioligand. The method of determining the radioligand Kd is also described.
as §3, §4, §5
Human PKC-β-I-GST fusion protein (Invitrogen, aliquoted and stored at -78 °C) Human PKC-δ-GST fusion protein (Invitrogen, aliquoted and stored at -78 °C) Glass-fiber filters (Whatman GF/B) […]
as §6, §7, §8, §9, §10, §11, §12, §13, §14, §15, §16, §17, §18, §19, §20, §21, §22
as §23, with “in” for “in the middle of the curve (e.g., for SUW400, the analog dilutions used were 15000 nM, 7500 nM,”
PKC binding assay protocol (Saturation -binding experiment and Competition -binding experiment)
1) Glass-fiber filters were prepared by soaking them in a solution of aqueous polyethyleneimine

[1] = HotNM 2.5, HotKdNM 0.62, supplement fit, read-out: Ki (best-fit value), PKC-δ
[2] = competition against radiolabeled PDBu, Fig. 7A and text, read-out: Ki PKC-δ
[3] = log of Ki in nM, HotNM 2.5, HotKdNM 0.62
[4] = HotNM 2.5, HotKdNM 0.37, supplement fit, read-out: Ki (best-fit value), PKC-β-I
[5] = competition against radiolabeled PDBu, Fig. 7A and text, read-out: Ki PKC-β

Row | Compound | Ki (PKC-δ; [1]) | Ki (PKC-δ; [2]) | logKi (best-fit value), PKC-δ (PKC-δ; [3]) | selectivity for PKC-β over PKC-δ (PKC-β-I) | preference for binding PKC-β over PKC-δ (PKC-β-I; Discussion) | PKC-β selectivity (PKC-β-I) | Ki (PKC-β-I; [4]) | Ki (PKC-β-I; [5]) | logKi (best-fit value), PKC-β-I (PKC-β-I; HotNM 2.5, HotKdNM 0.37) | PKC binding affinity and selectivity in words (PKC-β-I) | logKi (best-fit value), PKC-δ (PKC-δ; PKC-δ-GST from a different vendor (Sinobiological), HotNM 2.5, HotKdNM 2.94) | Ki (PKC-δ; PKC-δ-GST from a different vendor (Sinobiological), HotNM 2.5, HotKdNM 2.94, read-out: Ki (best-fit value), PKC-δ) | decrease in PKC binding affinity / potency compared to EBC-46 (PKC-β-I) | logKi (best-fit value), PKC-δ (PKC-δ; HotNM 5, HotKdNM 0.72) | Ki (PKC-δ; HotNM 5, HotKdNM 0.72, read-out: Ki (best-fit value), PKC-δ)
1 | C/C=C(\C)C(=O)O[C@@H]1[C@@H](C)[C@@]2(O)[C@H]([C@@H]3C(C)(C)[C@]13OC(=O)[C@@H](C)CC)[C@@H]1O[C@]1(CO)[C@@H](O)[C@]1(O)C(=O)C(C)=C[C@H]12 [EBC-46, Tigilanol tiglate] | 3.24 nM | 3.2 nM | 0.5102 | twofold | 2.3 × | 2.3 | 1.38 nM | 1.4 nM | 0.1397 | – | – | – | – | – | –
2 | C/C=C(\C)C(=O)O[C@@H]1[C@@H](C)[C@]2(O)[C@@H]3C=C(C)C(=O)[C@@]3(O)[C@H](O)C(CO)=C[C@H]2[C@@H]2C(C)(C)[C@]12OC(=O)[C@@H](C)CC [SUW400] | 2.53 nM | 2.5 nM | 0.4034 | – | – | 2.9 | 0.851 nM | 0.85 nM | -0.07019 | nearly identical binding affinity and selectivity compared to EBC-46 | – | – | – | – | –
3 | C/C=C(\C)C(=O)O[C@@H]1[C@@H](C)[C@@]2(O)[C@@H](C=C(CO)C[C@]3(O)C(=O)C(C)=C[C@@H]23)[C@@H]2C(C)(C)[C@]12OC(=O)[C@@H](C)CC [SUW402] | – | 0.44 nM | – | – | – | 3.7 | 0.118 nM | 0.12 nM | -0.9263 | remarkable affinities in the picomolar range | -0.3561 | 0.44 nM | – | – | –
4 | CC=C(C)C(=O)OC1C(C)C2(O)C(C3OC3(CO)CC3(O)C(=O)C(C)=CC32)C2C(C)(C)C12OC(=O)C(C)CC (stereo not shown) [SUW403] | 21.4 nM | 21 nM | 1.330 | – | – | 2.7 | 7.9 nM | 7.9 nM | 0.8975 | – | – | – | approximately fivefold | – | –
5 | C/C=C(\C)C(=O)O[C@@H]1[C@@H](C)[C@@]2(O)[C@H]([C@@H]3C(C)(C)[C@]13OC(=O)C1CCC1)[C@@H]1O[C@]1(CO)[C@@H](O)[C@]1(O)C(=O)C(C)=C[C@H]12 [SUW406] | 7.5 nM | 7.5 nM | 0.8752 | fourfold | – | 3.8 | 1.98 nM | 2 nM | 0.2968 | – | – | – | – | – | –
6 | C/C=C(\C)C(=O)O[C@@H]1[C@@H](C)[C@@]2(O)[C@H]([C@@H]3C(C)(C)[C@]13OC(=O)[C@H](C)CC)[C@@H]1O[C@]1(CO)[C@@H](O)[C@]1(O)C(=O)C(C)=C[C@H]12 [SUW407] | 3.73 nM | 3.7 nM | 0.5722 | – | – | 1.6 | 2.31 nM | 2.3 nM | 0.3637 | – | – | – | – | – | –
7 | CC[C@H](C)C(=O)O[C@@]12[C@H](OC(=O)C3(C)CC3)[C@@H](C)[C@@]3(O)[C@H]([C@@H]1C2(C)C)[C@@H]1O[C@]1(CO)[C@@H](O)[C@]1(O)C(=O)C(C)=C[C@H]13 [SUW413] | 9.66 nM | 9.7 nM | 0.9851 | – | – | 3.9 | 2.45 nM | 2.5 nM | 0.3892 | very similar binding affinity to both PKC-β and PKC-δ compared to SUW406 | – | – | – | – | –
8 | C/C=C(\C)C(=O)O[C@@H]1[C@@H](C)[C@@]2(O)[C@H]([C@@H]3C(C)(C)[C@]13OC(=O)N1CCCC1)[C@@H]1O[C@]1(CO)[C@@H](O)[C@]1(O)C(=O)C(C)=C[C@H]12 [SUW421] | 194 nM | 190 nM | 2.288 | 10 fold | – | 9.5 | 20.1 nM | 20 nM and ~25 nM | 1.302 | – | – | – | > 10 fold | – | –
9 | C/C=C(\C)C(=O)O[C@@H]1[C@@H](C)[C@]2(O)[C@@H]3C=C(C)[C@H](OC(=O)c4ccccc4)[C@@]3(O)[C@H](O)C(CO)=C[C@H]2[C@@H]2C(C)(C)[C@]12OC(=O)[C@@H](C)CC [SUW422] | 3.04 nM | – | 0.4832 | – | – | 2.1 | 1.49 nM | 1.5 nM | 0.1731 | nearly identical binding potency and selectivity to EBC-46 | – | – | – | – | –
10 | CC[C@H](C)C(=O)O[C@@]12[C@H](OC(=O)N3CCCC3)[C@@H](C)[C@@]3(O)[C@H]([C@@H]1C2(C)C)[C@@H]1O[C@]1(CO)[C@@H](O)[C@]1(O)C(=O)C(C)=C[C@H]13 [SUW424] | 175 nM | 170 nM | 2.242 | 6 fold | – | 6.1 | 27.8 nM | 28 nM and ~25 nM | 1.445 | – | – | – | > 10 fold | – | –
11 | C/C=C(\C)C(=O)O[C@@H]1[C@@H](C)[C@]2(O)[C@@H]3C=C(C)[C@H](OC(=O)C=C(C)C)[C@@]3(O)[C@H](O)C(CO)=C[C@H]2[C@@H]2C(C)(C)[C@]12OC(=O)[C@@H](C)CC [SUW425] | 4.73 nM | 4.7 nM | 0.6748 | – | – | 1.8 | 2.61 nM | 2.6 nM | 0.4165 | approximately the same as EBC-46 | – | – | – | – | –
12 | CC=C(C)C(=O)OC1C(C)C2(O)C(C3OC3(COC)C(O)C3(O)C(=O)C(C)=CC32)C2C(C)(C)C12OC(=O)C(C)CC (stereo not shown) [SUW426] | – | 700 nM | – | – | – | 1.8 | 396 nM | 400 nM | 2.598 | – | – | – | approximately 250 fold | 2.846 | 702 nM
